According to US20140200135A1, “Carbamoylmethoxy- and carbamoylmethylthio- and carbamoylmethylamino benzamides for combating invertebrate pests” (BASF SE, priority 2011, published 2014):

Tests used:
Type in all cases: in vivo
[1] = tested on: Boll weevil (Anthonomus grandis); assay: Boll weevil microtiter diet test, egg and larval mortality; settings: 120 h, 5 days, insect diet, read-out: mortality in comparison with untreated controls
Protocol: For evaluating control of boll weevil (Anthonomus grandis) the test unit consisted of 24-well-microtiter plates containing an insect diet and 20-30 A. grandis eggs.
(§1) The compounds were formulated using a solution containing 75% v/v water and 25% v/v DMSO. Different concentrations of formulated compounds were sprayed onto the insect diet at 20 μl, using a custom built micro atomizer, at two replications.
After application, microtiter plates were incubated at about 23±1° C. and about 50±5% relative humidity for 5 days. Egg and larval mortality was then visually assessed.

[2] = tested on: Mediterranean Fruitfly (Ceratitis capitata); assay: Mediterranean fruitfly microtiter diet test, egg and larval mortality; settings: 120 h, 5 days, insect diet, read-out: mortality in comparison with untreated controls
Protocol: For evaluating control of Mediterranean fruitfly (Ceratitis capitata) the test unit consisted of microtiter plates containing an insect diet and 50-80 C. capitata eggs.
The compounds were formulated using a solution containing 75% v/v water and 25% v/v DMSO. Different concentrations of formulated compounds were sprayed onto the insect diet at 5 μl, using a custom built micro atomizer, at two replications.
After application, microtiter plates were incubated at about 28±1° C. and about 80±5% relative humidity for 5 days. Egg and larval mortality was then visually assessed.

[3] = tested on: Diamond Backmoth (Plutella xylostella); assay: Diamond backmoth leaf-dip test, mortality; settings: 72 hours after treatment, 3rd instar larvae on dipped cabbage leaves, read-out: mortality in comparison with untreated controls
Protocol: The active compound was dissolved at the desired concentration in a mixture of 1:1 (vol:vol) distilled water:aceteone. Surfactant (Alkamuls® EL 620) was added at a rate of 0.1% (vol/vol). The test solution was prepared at the day of use.
Leaves of cabbage were dipped in test solution and air-dried. Treated leaves were placed in petri dishes lined with moist filter paper and inoculated with ten 3rd instar larvae. Mortality was recorded 72 hours after treatment. Feeding damages were also recorded using a scale of 0-100%.

[4] = tested on: TOBACCO budworm (Heliothis virescens); assay: Tobacco budworm microtiter diet test, egg and larval mortality; settings: 120 h, 5 days, insect diet, read-out: mortality in comparison with untreated controls
Protocol: as §1, with “For evaluating control of tobacco budworm (Heliothis virescens) the test unit consisted of 96-well-microtiter plates containing an insect diet and 15-25 H. virescens eggs. The” for “The”, “10” for “20”
After application, microtiter plates were incubated at about 28±1° C./and about 80±5% relative humidity for 5 days. Egg and larval mortality was then visually assessed.

[5] = tested on: Vetch aphid (Megoura viciae); assay: Vetch aphid broad bean leaf disk test, mortality; settings: foliar, 120 h, 5 days, adult aphids on broad bean leaf disks, read-out: mortality in comparison with untreated controls
Protocol: For evaluating control of vetch aphid (Megoura viciae) through contact or systemic means the test unit consisted of 24-well-microtiter plates containing broad bean leaf disks.
The compounds were formulated using a solution containing 75% v/v water and 25% v/v DMSO. Different concentrations of formulated compounds were sprayed onto the leaf disks at 2.5 μl, using a custom built micro atomizer, at two replications.
After application, the leaf disks were air-dried and 5-8 adult aphids placed on the leaf disks inside the microtiter plate wells. The aphids were then allowed to suck on the treated leaf disks and incubated at about 23±1° C. and about 50±5% relative humidity for 5 days. Aphid mortality and fecundity was then visually assessed.

[6] = tested on: Colorado Potato Beetle (Leptinotarsa decemlineata) (2nd instar larvae); assay: Colorado potato beetle foliar spray test on eggplant, mortality; settings: 96 h, 4 days after treatment, Table E; for mortality at 1 ppm: Concentration 1 ppm; for mortality at 10 ppm: Concentration 10 ppm; for mortality at 30 ppm: Concentration 30 ppm
Protocol: (§2) The active compounds were formulated in cyclohexanone as a 10,000 ppm solution supplied in tubes. The tubes were inserted into an automated electrostatic sprayer equipped with an atomizing nozzle and they served as stock solutions for which lower dilutions were made in 50% acetone:50% water (v/v). A nonionic surfactant (Kinetic®) was included in the solution at a volume of 0.01% (v/v).
Eggplants were grown 2 plants to a pot and were selected for treatment at the 1st true leaf stage. Test solutions were sprayed onto the foliage by an automated electrostatic plant sprayer equipped with an atomizing spray nozzle. The plants were dried in the sprayer fume hood and then removed from the sprayer. The treated foliage was then cut and removed from the pot and placed in a Petri dish lined with moistened filter paper. Five beetle larvae were introduced into each Petri dish and the dish was covered by a Petri dish lid. Petri dishes were maintained in a growth room at about 25° C. and about 20-40% relative humidity for 4 days, avoiding direct exposure to fluorescent light (24 hour photoperiod) to prevent trapping of heat inside the dishes. Mortality and reduced feeding were assessed 4 days after treatment, compared to untreated control plants.

[7] = tested on: Southern Armyworm (Spodoptera eridiana); 2nd Instar Larvae; assay: Southern armyworm foliar spray test on lima bean, mortality; settings: for mortality at 1 ppm: Concentration 1 ppm; for mortality at 1 ppm / mortality at 10 ppm / mortality at 30 ppm: southern armyworm, Table D; for mortality at 10 ppm: Concentration 10 ppm; for mortality at 30 ppm: Concentration 30 ppm; for mortality at 500 ppm: Spodoptera, 96 h, 4 days after treatment, lima bean foliage spray, read-out: mortality in comparison with untreated controls
Protocol: as §2
Lima bean plants (variety Sieva) were grown 2 plants to a pot and selected for treatment at the 1st true leaf stage. Test solutions were sprayed onto the foliage by an automated electrostatic plant sprayer equipped with an atomizing spray nozzle. The plants were dried in the sprayer fume hood and then removed from the sprayer. Each pot was placed into perforated plastic bags with a zip closure. About 10 to 11 armyworm larvae were placed into the bag and the bags zipped closed. Test plants were maintained in a growth room at about 25° C. and about 20-40% relative humidity for 4 days, avoiding direct exposure to fluorescent light (24 hour photoperiod) to prevent trapping of heat inside the bags. Mortality and reduced feeding were assessed 4 days after treatment, compared to untreated control plants.

[8] = tested on: Green Peach Aphid (Myzus persicae); assay: Green peach aphid spray test on bell pepper plants, mortality; settings: 120 h, after 5 days, sprayed bell pepper plants, read-out: mortality in comparison with untreated controls
Text: as §2
Bell pepper plants at the first true-leaf stage were infested prior to treatment by placing heavily infested leaves from the main colony on top of the treatment plants. Aphids were allowed to transfer overnight to accomplish an infestation of 30-50 aphids per plant and the host leaves were removed. The infested plants were then sprayed by an automated electrostatic plant sprayer equipped with an atomizing spray nozzle. The plants were dried in the sprayer fume hood, removed, and then maintained in a growth room under fluorescent lighting in a 24-hr photoperiod at about 25° C. and about 20-40% relative humidity. Aphid mortality on the treated plants, relative to mortality on untreated control plants, was determined after 5 days.

[9] = tested on: Cowpea Aphid (Aphis Craccivora); assay: Cowpea aphid spray test on potted cowpea plants, mortality; settings: after 72 hours, sprayed cowpea plants, read-out: mortality in comparison with untreated controls
Protocol: The active compound was dissolved at the desired concentration in a mixture of 1:1 (vol:vol) distilled water:acetone. Surfactant (Alkamuls® EL 620) is added at a rate of 0.1% (vol/vol). The test solution was prepared at the day of use.
Potted cowpea plants were colonized with approximately 50-100 aphids of various stages by manually transferring a leaf tissue cut from infested plant 24 hours before application. Plants were sprayed after the pest population has been recorded. Treated plants were maintained on light carts at about 28° C. Percent mortality was assessed after 72 hours.

[10] = tested on: Orchid Thrips (dichromothrips corbetti); assay: Orchid thrips floral-immersion test, mortality; settings: 72 hours after treatment, adult thrips, read-out: mortality in comparison with untreated controls
Protocol: Dichromothrips corbetti adults used for bioassay were obtained from a colony maintained continuously under laboratory conditions. For testing purposes, the test compound was diluted in a 1:1 mixture of acetone:water (vol:vol), plus 0.01% vol/vol Alkamuls® EL 620 surfactant.
Thrips potency of each compound was evaluated by using a floral-immersion technique. Plastic petri dishes were used as test arenas. All petals of individual, intact or chid flowers were dipped into treatment solution and allowed to dry. Treated flowers were placed into individual petri dishes along with about 20 adult thrips. The petri dishes were then covered with lids. All test arenas were held under continuous light and a temperature of about 28° C. for duration of the assay. After 3 days, the numbers of live thrips were counted on each flower, and along inner walls of each petri dish. The percent mortality was recorded 72 hours after treatment.

Compound | mortality at 2500 ppm [1] | mortality at 2500 ppm [2] | mortality at 500 ppm [3] | mortality at 2500 ppm [4] | mortality at 2500 ppm [5] | mortality at 1 ppm [6] | mortality at 10 ppm [6] | mortality at 30 ppm [6] | mortality at 1 ppm [7] | mortality at 10 ppm [7] | mortality at 30 ppm [7] | mortality at 500 ppm [7] | mortality at 2500 ppm [8] | mortality at 500 ppm [9] | mortality at 500 ppm [10]
CNC(=O)CONC(=O)c1cc(Cl)cc(C)c1NC(=O)c1cc(Br)nn1-c1ncccc1Cl [Compound 1-3, 5-bromo-2-(3-chloro-pyridin-2-yl)-2H-pyrazole-3-carboxylic acid (4-chloro-2-methyl-6-methylcarbamoylmethoxycarbamoyl-phenyl)-amide] | > 75% | > 75% | 100% | > 75% | > 75% | 100% | 100% | 100% | 100% | 100% | 100% | 100% | > 75% | – | –
CNC(=O)CONC(=O)c1cc(Br)cc(Br)c1NC(=O)c1cc(Br)nn1-c1ncccc1Cl [Compound 1-10, 5-bromo-2-(3-chloro-pyridin-2-yl)-2H-pyrazole-3-carboxylic acid (2,4-dibromo-6-methylcarbamoylmethoxycarbamoyl-phenyl)-amide] | > 75% | > 75% | 100% | > 75% | > 75% | – | – | – | – | – | – | 100% | > 75% | > 75% | > 75%
Cc1cc(Cl)cc(C(=O)NNCC(=O)NCc2ccccc2)c1NC(=O)c1cc(Br)nn1-c1ncccc1Cl [Compound 1-11, 5-bromo-2-(3-chloro-pyridin-2-yl)-2H-pyrazole-3-carboxylic acid {2-[N′-(benzylcarbamoyl-methyl)-hydrazinocarbonyl]-4-chloro-6-methyl-phenyl}-amide] | > 75% | > 75% | 100% | > 75% | > 75% | – | – | – | – | – | – | 100% | > 75% | – | –
CONC(=O)c1cc(Cl)cc(C)c1NC(=O)c1cc(Br)nn1-c1ncccc1Cl [Compound X-1, 5-bromo-2-(3-chloro-pyridin-2-yl)-2H-pyrazole 3-carboxylic acid (4-chloro-2-methoxycarbamoyl-6-methyl-phenyl)amide, reference compound] | – | – | – | – | – | 0% | 100% | 100% | 0% | 100% | 100% | – | – | – | –
